Legend:
Format in all cases: binding
[1] = target: T1, kinases (KINOMEscan panel) (Homo sapiens, UniProt O15111)
T1 sequence (O15111 1-745): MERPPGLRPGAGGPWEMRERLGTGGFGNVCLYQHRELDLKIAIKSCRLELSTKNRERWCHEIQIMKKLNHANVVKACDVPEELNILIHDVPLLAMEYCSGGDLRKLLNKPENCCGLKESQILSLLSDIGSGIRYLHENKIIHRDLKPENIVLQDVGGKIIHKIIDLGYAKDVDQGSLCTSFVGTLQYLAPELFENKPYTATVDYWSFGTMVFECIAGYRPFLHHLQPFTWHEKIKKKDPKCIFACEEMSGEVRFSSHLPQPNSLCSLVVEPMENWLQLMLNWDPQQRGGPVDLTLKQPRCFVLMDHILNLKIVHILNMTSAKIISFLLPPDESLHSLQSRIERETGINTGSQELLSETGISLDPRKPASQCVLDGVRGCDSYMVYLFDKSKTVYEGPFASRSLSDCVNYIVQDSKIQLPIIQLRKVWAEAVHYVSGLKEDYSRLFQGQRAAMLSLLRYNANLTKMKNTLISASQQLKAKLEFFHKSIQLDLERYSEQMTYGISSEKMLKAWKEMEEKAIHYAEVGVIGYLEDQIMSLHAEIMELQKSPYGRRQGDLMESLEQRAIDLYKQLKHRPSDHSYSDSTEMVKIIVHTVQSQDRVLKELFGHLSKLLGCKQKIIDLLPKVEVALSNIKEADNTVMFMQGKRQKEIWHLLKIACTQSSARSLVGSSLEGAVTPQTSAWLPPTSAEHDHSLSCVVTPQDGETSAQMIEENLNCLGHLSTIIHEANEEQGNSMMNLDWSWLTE

[2] = target: T2, kinases (KINOMEscan panel) (Homo sapiens, UniProt O43318); details: NEW KINOMEscan
T2 sequence (O43318 1-606): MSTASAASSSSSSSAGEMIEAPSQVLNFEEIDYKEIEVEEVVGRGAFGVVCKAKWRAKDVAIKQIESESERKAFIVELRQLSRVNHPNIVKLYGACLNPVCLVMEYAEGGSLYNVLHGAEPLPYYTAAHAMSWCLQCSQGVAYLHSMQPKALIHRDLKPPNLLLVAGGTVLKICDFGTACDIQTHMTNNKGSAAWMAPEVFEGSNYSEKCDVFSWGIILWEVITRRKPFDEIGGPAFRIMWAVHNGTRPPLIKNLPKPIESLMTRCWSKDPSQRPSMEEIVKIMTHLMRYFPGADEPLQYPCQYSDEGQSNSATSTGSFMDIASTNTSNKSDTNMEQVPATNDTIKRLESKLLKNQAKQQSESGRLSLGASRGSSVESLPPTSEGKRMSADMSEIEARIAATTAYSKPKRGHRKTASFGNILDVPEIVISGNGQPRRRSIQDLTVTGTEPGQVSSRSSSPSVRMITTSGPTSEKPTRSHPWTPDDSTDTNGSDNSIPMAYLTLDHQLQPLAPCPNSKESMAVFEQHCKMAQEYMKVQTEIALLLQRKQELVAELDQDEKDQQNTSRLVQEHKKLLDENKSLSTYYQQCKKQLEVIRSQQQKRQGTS

[3] = target: kinases (KINOMEscan panel) (Homo sapiens, UniProt P08069); details: kinase IGF1R; NEW KINOMEscan
Sequence of kinases (KINOMEscan panel) (Homo sapiens, UniProt P08069) (P08069 31-1367): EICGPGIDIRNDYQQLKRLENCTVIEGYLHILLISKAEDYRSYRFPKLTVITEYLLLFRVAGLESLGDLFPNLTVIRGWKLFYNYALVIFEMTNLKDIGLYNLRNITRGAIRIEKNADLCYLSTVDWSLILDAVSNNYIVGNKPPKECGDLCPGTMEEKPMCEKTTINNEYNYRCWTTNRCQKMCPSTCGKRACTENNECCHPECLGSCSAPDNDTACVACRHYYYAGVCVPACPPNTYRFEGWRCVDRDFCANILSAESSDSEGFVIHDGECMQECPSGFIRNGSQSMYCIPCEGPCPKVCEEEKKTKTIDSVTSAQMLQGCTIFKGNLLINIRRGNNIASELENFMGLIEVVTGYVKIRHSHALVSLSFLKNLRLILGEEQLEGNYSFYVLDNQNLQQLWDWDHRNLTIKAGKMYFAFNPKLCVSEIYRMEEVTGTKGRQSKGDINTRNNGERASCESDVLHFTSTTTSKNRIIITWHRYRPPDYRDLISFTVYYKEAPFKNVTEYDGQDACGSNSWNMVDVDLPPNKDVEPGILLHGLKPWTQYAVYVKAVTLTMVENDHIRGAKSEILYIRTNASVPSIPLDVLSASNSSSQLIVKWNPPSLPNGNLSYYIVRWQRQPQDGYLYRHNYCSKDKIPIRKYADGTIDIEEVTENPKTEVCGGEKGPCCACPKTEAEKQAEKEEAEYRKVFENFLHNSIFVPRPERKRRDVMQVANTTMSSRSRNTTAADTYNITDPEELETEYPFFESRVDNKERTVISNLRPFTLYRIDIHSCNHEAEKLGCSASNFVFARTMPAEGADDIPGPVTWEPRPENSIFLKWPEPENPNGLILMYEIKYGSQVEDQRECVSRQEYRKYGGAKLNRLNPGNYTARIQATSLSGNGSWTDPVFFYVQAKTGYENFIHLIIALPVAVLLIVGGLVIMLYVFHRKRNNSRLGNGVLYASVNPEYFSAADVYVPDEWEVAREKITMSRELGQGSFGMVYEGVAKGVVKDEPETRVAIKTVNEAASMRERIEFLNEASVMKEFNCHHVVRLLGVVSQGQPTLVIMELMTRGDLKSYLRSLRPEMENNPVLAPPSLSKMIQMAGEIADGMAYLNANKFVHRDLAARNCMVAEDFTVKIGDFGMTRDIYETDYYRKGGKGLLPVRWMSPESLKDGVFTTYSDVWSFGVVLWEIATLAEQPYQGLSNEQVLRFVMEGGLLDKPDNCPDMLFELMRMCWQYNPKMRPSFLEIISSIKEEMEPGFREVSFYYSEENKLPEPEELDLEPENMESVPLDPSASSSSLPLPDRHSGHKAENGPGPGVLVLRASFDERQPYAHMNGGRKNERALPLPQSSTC

[4] = target: kinases (KINOMEscan panel) (Homo sapiens, UniProt P24723); details: kinase PRKCH; NEW KINOMEscan
Sequence of kinases (KINOMEscan panel) (Homo sapiens, UniProt P24723) (P24723 whole entry): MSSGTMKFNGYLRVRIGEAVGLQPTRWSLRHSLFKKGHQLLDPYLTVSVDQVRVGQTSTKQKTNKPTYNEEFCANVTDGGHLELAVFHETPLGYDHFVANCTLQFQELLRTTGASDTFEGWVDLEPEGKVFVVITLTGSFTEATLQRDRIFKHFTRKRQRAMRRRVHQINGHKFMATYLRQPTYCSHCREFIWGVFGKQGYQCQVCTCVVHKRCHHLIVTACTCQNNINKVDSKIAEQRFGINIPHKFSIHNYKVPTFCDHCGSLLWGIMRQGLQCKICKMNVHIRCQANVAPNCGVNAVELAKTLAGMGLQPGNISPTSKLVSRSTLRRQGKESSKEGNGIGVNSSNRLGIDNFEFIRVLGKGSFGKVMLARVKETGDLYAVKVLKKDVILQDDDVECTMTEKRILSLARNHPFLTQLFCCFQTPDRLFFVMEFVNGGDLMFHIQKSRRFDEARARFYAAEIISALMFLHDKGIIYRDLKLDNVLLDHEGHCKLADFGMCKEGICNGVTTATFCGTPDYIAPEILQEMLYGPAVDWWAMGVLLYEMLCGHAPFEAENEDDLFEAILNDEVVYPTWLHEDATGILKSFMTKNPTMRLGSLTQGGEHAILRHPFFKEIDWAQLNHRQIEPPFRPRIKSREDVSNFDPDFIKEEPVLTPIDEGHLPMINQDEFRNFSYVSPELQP

[5] = target: kinases (KINOMEscan panel) (Homo sapiens, UniProt P24941); details: CDK2; NEW KINOMEscan
[6] = target: kinases (KINOMEscan panel) (Homo sapiens, UniProt P36888, D835Y); details: kinase FLT3(D835Y); NEW KINOMEscan
[7] = target: kinases (KINOMEscan panel) (Homo sapiens, UniProt P36888, N841I); details: FLT3(N841I); NEW KINOMEscan
[8] = target: T3, kinases (KINOMEscan panel) (Homo sapiens, UniProt P54753); details: kinase EPHB3; NEW KINOMEscan
T3 sequence (P54753 34-998): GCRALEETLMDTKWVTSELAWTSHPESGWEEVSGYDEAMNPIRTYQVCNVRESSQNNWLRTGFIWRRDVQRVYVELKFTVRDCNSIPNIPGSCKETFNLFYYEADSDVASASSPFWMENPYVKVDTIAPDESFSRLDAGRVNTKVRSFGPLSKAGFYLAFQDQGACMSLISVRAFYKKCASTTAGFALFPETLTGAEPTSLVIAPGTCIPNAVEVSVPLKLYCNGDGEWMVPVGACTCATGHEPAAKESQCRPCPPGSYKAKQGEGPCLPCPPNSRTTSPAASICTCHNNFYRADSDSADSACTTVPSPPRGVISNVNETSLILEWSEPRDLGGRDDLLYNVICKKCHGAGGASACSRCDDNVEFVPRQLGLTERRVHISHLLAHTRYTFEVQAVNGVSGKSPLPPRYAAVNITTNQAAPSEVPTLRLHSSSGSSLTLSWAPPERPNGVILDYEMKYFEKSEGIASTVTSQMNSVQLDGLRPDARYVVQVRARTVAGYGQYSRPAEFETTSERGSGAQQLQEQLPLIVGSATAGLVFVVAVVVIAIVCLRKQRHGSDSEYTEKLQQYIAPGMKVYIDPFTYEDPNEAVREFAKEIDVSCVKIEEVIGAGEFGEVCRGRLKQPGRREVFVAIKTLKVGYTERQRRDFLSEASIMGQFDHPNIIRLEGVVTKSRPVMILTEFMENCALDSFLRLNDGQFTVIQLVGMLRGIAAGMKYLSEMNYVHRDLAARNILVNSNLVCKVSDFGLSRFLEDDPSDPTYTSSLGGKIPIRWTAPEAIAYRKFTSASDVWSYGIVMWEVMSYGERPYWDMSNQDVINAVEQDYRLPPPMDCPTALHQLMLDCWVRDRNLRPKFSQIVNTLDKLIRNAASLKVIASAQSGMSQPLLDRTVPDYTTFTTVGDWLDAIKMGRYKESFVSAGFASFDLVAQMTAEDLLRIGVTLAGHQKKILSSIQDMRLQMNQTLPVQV

[9] = target: kinases (KINOMEscan panel) (Homo sapiens, UniProt Q8IU85); details: kinase CAMK1D; NEW KINOMEscan
Sequence of kinases (KINOMEscan panel) (Homo sapiens, UniProt Q8IU85) (Q8IU85 whole entry): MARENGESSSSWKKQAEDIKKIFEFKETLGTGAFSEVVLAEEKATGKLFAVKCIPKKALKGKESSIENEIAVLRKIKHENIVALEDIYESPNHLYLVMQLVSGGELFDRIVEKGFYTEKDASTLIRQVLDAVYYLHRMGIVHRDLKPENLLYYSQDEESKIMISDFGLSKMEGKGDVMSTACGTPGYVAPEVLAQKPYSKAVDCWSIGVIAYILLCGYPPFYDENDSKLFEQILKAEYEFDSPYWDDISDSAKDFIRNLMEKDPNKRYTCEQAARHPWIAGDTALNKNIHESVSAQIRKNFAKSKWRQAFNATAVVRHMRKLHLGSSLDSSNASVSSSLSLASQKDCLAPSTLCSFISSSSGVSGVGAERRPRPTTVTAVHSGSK

[10] = target: kinases (KINOMEscan panel) (Homo sapiens, UniProt Q9BUB5); details: NEW KINOMEscan
Sequence of kinases (KINOMEscan panel) (Homo sapiens, UniProt Q9BUB5) (Q9BUB5 whole entry): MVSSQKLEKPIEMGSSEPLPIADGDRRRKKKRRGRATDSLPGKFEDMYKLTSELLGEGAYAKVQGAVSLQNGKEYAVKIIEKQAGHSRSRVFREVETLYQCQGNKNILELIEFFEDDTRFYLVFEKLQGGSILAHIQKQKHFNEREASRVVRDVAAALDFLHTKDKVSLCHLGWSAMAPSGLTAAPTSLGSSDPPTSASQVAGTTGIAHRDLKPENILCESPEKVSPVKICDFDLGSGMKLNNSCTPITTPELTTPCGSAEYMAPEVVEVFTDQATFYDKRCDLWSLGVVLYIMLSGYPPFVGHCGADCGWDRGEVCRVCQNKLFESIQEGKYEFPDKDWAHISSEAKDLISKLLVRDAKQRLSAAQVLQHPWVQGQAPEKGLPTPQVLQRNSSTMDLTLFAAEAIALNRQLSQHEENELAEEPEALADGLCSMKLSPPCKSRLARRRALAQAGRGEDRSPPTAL

[11] = target: kinases (KINOMEscan panel) (Homo sapiens, UniProt Q9UEW8); details: NEW KINOMEscan

Compound	KINOMEscan CHUK/IKK-alpha [1]	KINOMEscan MAP3K7 [2]	KINOMEscan IGF1R [3]	KINOMEscan PRKCH [4]	KINOMEscan CDK2 [5]	KINOMEscan FLT3(D835Y) [6]	KINOMEscan FLT3(N841I) [7]	KINOMEscan EPHB3 [8]	KINOMEscan CAMK1D [9]	KINOMEscan MKNK1 [10]	KINOMEscan STK39 [11]
Cc1cccc(-c2nc(Nc3ccc4nn(C)cc4c3)c3ccccc3n2)n1 [NK167]	0	0	0	21	0	0	3	6	0	0	11
Cc1cccc(-c2nc(N(C)c3ccc4ncsc4c3)c3ccccc3n2)n1 [NK-161]	20	10	14	8	0	3	0	6	0	7	0

Source: article PMC9851200, “Multiparameter phenotypic screening for endogenous TFEB and TFE3 translocation identifies novel chemical series modulating lysosome function” (Autophagy, 2022)
